Assay results: EPA's ToxValDB 9.5 (doi:10.2903/j.efsa.2016.4452)

How the values were obtained:
[1] = system: Canidae; conditions: chronic; duration: 1 years; oral; Dog Other; organ weight
[2] = system: Anas platyrhynchos; conditions: reproductive; duration: 20 weeks; oral; feed; M
[3] = system: Apis mellifera; conditions: acute, mortality
[4] = system: Bibionidae; conditions: chronic/long-term; duration: 28 days; reproduction
[5] = system: Colinus virginianus; conditions: acute, oral, diet, mortality
[6] = system: Daphnia magna; conditions: chronic/long-term; duration: 21 days; reproduction
[7] = system: Folsomia candida; conditions: chronic/long-term; duration: 28 days
[8] = system: Lepomis macrochirus; conditions: acute; duration: 96 hours; mortality
[9] = system: Oryctolagus sp.; conditions: reproduction developmental; no effects
[10] = system: Pimephales promelas; conditions: chronic/long-term; duration: 28 days; reproduction
[11] = system: Rattus norvegicus
[12] = system: Tagia sp.
[13] = system: Aphidius rhopalosiphi; test: LR50; higher = less toxic; conditions: not reported; mortality

Row | Compound | LOAEL [1] [mg/kg-day] | NOAEL [2] [mg/kg-day] | LD50 ([3]; dermal) [µg/piece] | LD50 ([3]; oral, unspecified) [µg/piece] | NOEC [4] [mg/kg] | LD50 ([5]; duration: 8 days) [mg/kg-day] | LD50 ([5]; duration: 14 days) [mg/kg-day] | NOEC [6] [mg/L] | NOEC [7] [mg/kg] | LC50 [8] [µg/mL] | NOAEL [9] [mg/kg-day] | NOEC [10] [mg/L] | LD50 ([11]; acute, oral, mortality) [mg/kg-day] | NOAEL ([11]; reproduction developmental, no effects) [mg/kg-day] | LC50 ([12]; acute, duration: 14 days, mortality) [mg/kg] | NOEC ([12]; chronic/long-term, duration: 56 days) [mg/kg] | LR50 [13] [g/ha]
1 | O=c1[nH]c(-c2cc(Br)nn2-c2ncccc2Cl)nc2c(Br)cc(Cl)cc12 [Cyclaniliprole metabolite (NSY-28)] | 1.29 | – | – | – | – | – | – | – | – | – | – | – | – | – | – | – | –
2 | CC(NC(=O)c1cc(Cl)cc(Br)c1NC(=O)c1cc(Br)nn1-c1ncccc1Cl)C1CC1 (stereo not drawn) [Cyclaniliprole] | 1.29 | 2.7 | 0.486 | 0.194 | 0.061 | > 1000 | > 2000 | 0.015 | 1.25 | > 0.15 | 1000 | 0.2 | > 2000 | 1000 | > 500 | 500 | 0.507
